From US11261435B2, “Chemical-inducible genome engineering technology” (AGENCY FOR SCIENCE, TECHNOLOGY AND RESEARCH, priority 2015, dated 2022)

Columns and labels:
EMX1 locus [1] = assay: Surveyor cleavage assay at the EMX1 locus in HEK293 cells; format: cell-based, human; conditions: for switching ratio: harvested 96 hours after transfection
Experimental: FIG. 29|Effect of enzyme dosage on the level of background activity, shown as gel images. Different amounts of an iCas-bearing plasmid were transfected together with an EMX1-targeting sgRNA into HEK293 cells. These cells were harvested 96 hours after transfection for the Surveyor cleavage assay. DNA modification was clearly observed when 1 μg of plasmid was utilised, even in the absence of the inducer. […] The switching ratio was improved from 2.83 to 4.16 and 7.96 respectively. […] Arrows indicate the height of the expected cleavage bands.

EMX1 locus [2] = assay: Illumina deep sequencing of INDELs at the EMX1 locus in HEK293 cells; format: cell-based, human; conditions: for time at which leaky activity was first detected: without 4-hydroxytamoxifen (0 nM)
FANCF locus = assay: Surveyor assay, genome modification at the FANCF locus in HEK293 cells; format: cell-based, human; conditions: for cleavage bands with 4HT: 100 nM or 1000 nM 4HT for 24 hours
Experimental: FIG. 16|Genome modification at the FANCF locus in HEK293 cells, the data represented as images showing the results and the concentration of gene induction. 24 hours after transfection with Cas9 variant 27, 29, or 30, the cells were either harvested immediately (0 hour time point) or were exposed to 0 nM, 100 nM or 1000 nM 4HT for another 24 hours before genomic DNA was isolated and analysed by the Surveyor assay. Arrows indicate the expected cleavage bands. […] Furthermore, the leakiness in editing activity became more pronounced over time, as indicated by the increase in INDEL frequency from 2.5% to 7.7% for variant 27 and from 2.9% to 3.5% for variant 29.
At 24 hours after transfection with a FANCF-targeting plasmid, cells were treated with or without tamoxifen for another 24 hours before genomic DNA was isolated and analysed by the Surveyor assay (FIG. 10).

Wnt signalling pathway = assay: Wnt-responsive luciferase reporter assay in STF3A-TetOn cells; format: cell-based; conditions: CTNNB1-targeting sgRNA; chemical 6 hours, harvested after another 72 hours
Experimental: Cells were treated for 6 hours with the respective chemical and then harvested after another 72 hours to allow sufficient time for changes in β-catenin or luciferase protein levels.
The cells were then trypsinised and re-seeded equally into a Corning 96-well flat clear bottom white plate. Samples were assayed for luciferase activity using Dual-Glo Luciferase (Promega) according to manufacturer's instructions. All measurements were taken using the i-control software for Tecan microplate readers. All firefly luciferase measurements were normalized to the corresponding renilla luciferase readings.

[3] = test system: EMX1 and ADAR1 genomic loci; assay: Multiplex genome editing, Surveyor assay; format: cell-based, human
Experimental: Besides single gene targeting, the ability of iCas to perform multiplex genome engineering was compared with that of intein-Cas9 or split-Cas9. HEK293 cells were co-transfected with a sgRNA targeting EMX1 and another sgRNA targeting a coding exon of ADAR1 (ADAR), and subsequently the extent of genome modification was analysed by the Surveyor assay.

TAT locus = assay: Surveyor assay at the TAT locus in cancer cell lines; format: cell-based, human; conditions: 1 μM 4HT; MCF7, DLD1 and HCT116
Experimental: FIG. 18|Genome modification at the TAT locus in different cancer cell lines. The efficiency of iCas was tested in the breast cancer cell line MCF7, as well as in the colorectal cancer cell lines DLD1 and HCT116, the results of which are shown as gel images. Based on the Surveyor assays, genome modifications were detected after the cells were treated with 1 μM 4HT for 6 hours. The INDEL frequency increased when the treatment duration was lengthened to 8 hours for all the cell lines tested. Arrows indicate the expected cleavage bands.
(§1) The editing activity continued to increase with longer treatment durations.

HEK293-iCas cells = assay: Immunofluorescence localization of iCas in the stable line; format: cell-based, human
Experimental: FIG. 6|Toggling the activity of iCas on and off (a,b) Immunofluorescence images (a) and quantification (b) of iCas in HEK293-iCas cells either untreated (N.A.) or treated with 4-HT and then fixed at 0, 48, or 72 h after removal of 4-HT from the culture medium. DAPI, nuclear staining; V5, antibody specific for V5-tagged Cas9. Scale bar, […]. In (b), at least 300 cells were counted for each sample and time point. Data represent mean±s.d. from three biological replicates. n.s., not significant (P>0.25); **P<0.001, Student's t-test. (c) Surveyor assay detection of genome modification in HEK293 cells after two cycles of transfection and 4-HT treatment (4-HT 1 and 4-HT 2). A sgRNA targeting the WAS locus was transfected first, and a sgRNA targeting the ASXL2 locus second. Arrows indicate the expected cleavage bands.
In principle, a conditional system such as iCas should allow users to generate stable cell lines and induce its activity whenever needed. […] The cell line was verified to be functional (FIG. 25a) and monitored the intracellular localization of iCas by immunofluorescence (FIG. 6a). Without 4-hydroxytamoxifen, most cells produced an iCas protein that was localized in the cytoplasm; only 15% of the cells contained nuclear-localized protein. […] The inducer was then washed away and the cells immunostained with anti-V5 antibody at 48 and 72 hours after removal of 4-hydroxytamoxifen.

WAS locus and ASXL2 = assay: Toggling of iCas activity, Surveyor assay; format: cell-based, human
Experimental: Subsequently, the possibility of toggling the activity of iCas was explored (FIG. 25b). After 1 μM 4-hydroxytamoxifen treatment of HEK293 cells co-transfected with iCas and a first sgRNA targeting the WAS locus, the inducer was removed and 72 hours waiting time was allowed to pass, thereby allowing nuclear-localized iCas protein to exit the nucleus before introducing a second sgRNA targeting a coding exon of ASXL2. The cells were then either treated with 4-hydroxytamoxifen a second time or left untreated.

PARP4 gene = assay: Surveyor assay at PARP4 in the HEK293-iCas stable line; format: cell-based, human; conditions: 1 μM 4HT for 24 hours; after at least two weeks of passaging
Experimental: FIG. 27|Temporal switching of iCas activity. […] To assess the functionality of this cell line, a lentivirus expressing a sgRNA targeting one of the coding exons of the PARP4 gene was generated, and HEK293-iCas cells were infected the virus. After puromycin selection and continuous passaging of the cells for at least two weeks, the cells were treated with or without 1 μM 4HT for 24 hours before harvesting them for analysis using the Surveyor assay. […] When the cells are treated with 4HT, the iCas enzyme is expected to translocate into the nucleus and be able to edit the DNA (these cells are depicted as yellow). However, when the inducer has been removed for more than 72 hours, the iCas protein is expected to translocate out of the nucleus and thus no more editing will be anticipated.

[4] = test system: EMX1, TAT, and WAS genomic loci; assay: Benchmarking of post-translational control systems by Surveyor assay and deep sequencing; format: cell-based, human
From the text: Arrows indicate the expected cleavage bands.

β-catenin = β-catenin transcript (qRT-PCR) and protein (Western blot) levels; format: cell-based, human; conditions: inducer 6 hours, harvested after another 72 hours
Experimental: Subsequently, they were harvested for analysis after another 72 hours. […] Error bars reflect the standard deviation from at least three biological replicates.
Proteins from whole cell lysates, nuclear fractions, and cytosolic fractions were loaded in equal amounts for SDS PAGE and then transferred onto a nitrocellulose membrane for western blot. The primary antibodies used were α-V5 (Life Technologies, 1:8000 dilution), α-3PGDH (Santa Cruz, 1:1000 dilution), and α-total histone H3 (Abcam, 1:10000 dilution). Primary antibodies were diluted in TBST+5% milk and incubated overnight at 4° C. Secondary antibodies were used at a 1:2500 dilution in TBST+5% milk. Membranes were exposed after addition of WesternBright Sirius HRP substrate (Advansta).

CTNNB1 locus = assay: Surveyor assay at the CTNNB1 locus in STF3A-Tet-On cells; format: cell-based
HEK293 cells = assay: Immunohistochemical staining, nuclear localization of (ERT2)2-Cas9-(ERT2)2; format: cell-based, human; conditions: no 4-HT; 24 hours after transfection
Experimental: To verify the results from the Surveyor assays and deep sequencing experiments, immunohistochemical staining was performed to determine the subcellular localization of the three variants, all of which contained two copies of ERT2 at both termini of the enzyme ((ERT2)2-Cas9-(ERT2)2), with or without 1 μM 4-HT. 24 hours after transfection with plasmids carrying a Cas9 variant and a sgRNA targeting the EMX1, VEGFA, FANCF, WAS, or TAT genomic locus, the cells were either fixed immediately and stained with anti-V5 or were subjected to 6 h or 24 h 4-HT treatment before fixation and staining (FIG. 15). […] Most of the protein translocation occurred within the first 6 hours of 4-hydroxytamoxifen treatment.
Paraformaldehyde-fixed HEK293 cells were first incubated with blocking solution (10% FBS in 0.1M PBS) (JR Scientific Inc) for 30 minutes and then quenched with 3% hydrogen peroxide. Next, the samples were incubated for 2 hours at room temperature or 4° C. overnight with primary antibody specific against the V5 epitope tag (Life Technologies) in blocking solution. Negative controls were incubated with blocking solution without any primary antibody. Subsequently, the samples were thoroughly washed with PBS and then incubated for 1 hour at room temperature with secondary horseradish peroxidase (HRP)-conjugated antibody (GE Healthcare UK Ltd). […]

[5] = test system: known Cas9 off-target sites of the EMX1, VEGFA, FANCF, WAS, and TAT sgRNAs; assay: Surveyor assay at known Cas9 off-target sites; format: cell-based, human
Experimental: The specificity of iCas was tested using seven distinct guide RNAs (gRNAs), the results of which are shown in three-dimensional column graphs. […] (n≥2 replicates for each on-target site; n≥3 replicates for each EMX1 off-target site; n≥1 replicate for other off-target sites.)
To assess the DNA cleavage specificity of iCas, the modification of known Cas9 off-target sites of the EMX1, VEGFA, FANCF, WAS, and TAT sgRNAs was measured.

[6] = test system: VEGFA promoter, WAS, TAT, and FANCF genes; assay: Surveyor assay at VEGFA, WAS, TAT and FANCF genomic loci in HEK293 cells; format: cell-based, human; conditions: 1 μM 4-HT
From the text: as §1

[7] = absence of 4HT, harvested 24 hours after transfection (0 hour time point)

Substance: 4-hydroxytamoxifen [4HT, reference compound]
- 4HT concentration for maximum activation of the inducible genome editing system (EMX1 locus [1]; 10, 100, 1000 nM tested, Surveyor assay and deep sequencing): at least 100 nM

Substance: variant 27: NLS-TGGGS-ERT2-PRGGS-ERT2-TPESGA-Cas9-NLS-ERT2-PAG-ERT2 (SEQ ID NO. 246)
- duration of 4-hydroxytamoxifen treatment after which a low level of DNA editing was revealed (EMX1 locus [2]): 2 h
- time at which leaky activity was first detected (EMX1 locus [2]): 6 h
- duration of 4-hydroxytamoxifen treatment at which cleavage activity appears to plateau (EMX1 locus [1]; Surveyor assay): around 8 hours
- INDEL frequency (FANCF locus; 0 nM 4HT for another 24 hours): 7.7%
- cleavage bands with 4HT (FANCF locus): strong cleavage bands were observed
- INDEL frequency (FANCF locus; [7]): 2.5%

Substance: variant 29: NLS-TG-ERT2-GGSPRGGS-ERT2-TPESGA-Cas9-NLS-ERT2-PAG-ERT2 (SEQ ID NO. 248)
- duration of 4-hydroxytamoxifen treatment after which a low level of DNA editing was revealed (EMX1 locus [2]): 2 h
- time at which leaky activity was first detected (EMX1 locus [2]): 2 h
- duration of 4-hydroxytamoxifen treatment at which cleavage activity appears to plateau (EMX1 locus [1]; Surveyor assay): around 8 hours
- INDEL frequency (FANCF locus; 0 nM 4HT for another 24 hours): 3.5%
- cleavage bands with 4HT (FANCF locus): strong cleavage bands were observed
- INDEL frequency (FANCF locus; [7]): 2.9%

Substance: variant 30: NL-TGGGS-ERT2-PRGGS-ERT2-TPESGA-Cas9-NLS-ERT2-PAGGGS-ERT2 (SEQ ID NO. 249); hereafter referred to as iCas
- duration of 4-hydroxytamoxifen treatment after which a low level of DNA editing was revealed (EMX1 locus [2]): 2 h
- time at which leaky activity was first detected (EMX1 locus [2]): 16 h
- luciferase activity (Wnt signalling pathway): significant decrease in luciferase activity
- editing of two genomic loci simultaneously ([3]; 12 hours of chemical treatment): generated INDELs at both the EMX1 and ADAR1 genomic loci
- editing of two genomic loci simultaneously ([3]; 24 hours of chemical treatment): produced more genome modification than at 12 hours
- duration of 4HT treatment after which genome modifications were detected (TAT locus): 6 h
- cells containing nuclear-localized protein (HEK293-iCas cells; 24 hour treatment with 4-hydroxytamoxifen): 48%
- cells containing nuclear-localized protein (HEK293-iCas cells; 72 hours after removal of 4-hydroxytamoxifen): not significantly different from that of the pre-induction state
- cells containing nuclear-localized protein (HEK293-iCas cells; without 4-hydroxytamoxifen): 15%
- switching ratio (EMX1 locus [1]; 0.25 μg plasmid): 7.96
- switching ratio (EMX1 locus [1]; 0.5 μg plasmid): 4.16
- switching ratio (EMX1 locus [1]; 1 μg of plasmid): 2.83
- duration of 4-hydroxytamoxifen treatment at which cleavage activity appears to plateau (EMX1 locus [1]; Surveyor assay): around 8 hours
- time point at which leaky activity was observed (EMX1 locus [1]; without 4-hydroxytamoxifen (0 nM), Surveyor assay): 48 h
- cleavage after two cycles of transfection, treated twice with the inducer (WAS locus and ASXL2; 1 μM 4-hydroxytamoxifen after first and second transfection): cleavage activity was readily observed at both targeted loci
- cleavage after two cycles of transfection, inducer after the first transfection only (WAS locus and ASXL2; 4-hydroxytamoxifen after the first but not the second transfection): cleavage was detected only at the WAS locus
- cleavage bands with or without 4HT in the stable line (PARP4 gene): Cleavage bands (indicated by arrows) were observed for the treated cells, but not for the untreated cells
- switching ratio compared with intein-Cas9 ([4]; Surveyor assay, EMX1 and WAS loci): significantly higher ratios than intein-Cas9
- induction time needed to reach the INDEL frequency of split-Cas9 after approximately 96 hours ([4]; deep sequencing): 12 h
- background activity without the inducer ([4]; no inducer): comparable levels of leakiness
- amount of β-catenin protein relative to the original level (β-catenin; co-transfected with β-catenin-targeting sgRNA, Western blot): less than 20%
- transcript level of β-catenin (β-catenin; β-catenin-targeting sgRNA, qRT-PCR): significant decrease
- duration of inducer treatment until modification of the target locus (CTNNB1 locus; 1 μM 4-hydroxytamoxifen or 1 μg/ml doxycycline): ≤ 6 h
- cleavage bands in the absence of 4-hydroxytamoxifen (CTNNB1 locus; any time point): No cleavage bands were observed
- nuclear localization in the absence of 4-hydroxytamoxifen, versus variant 27 or variant 29 (HEK293 cells): significantly less nuclear localization
- cleavage at the two EMX1 off-target sites ([5]; EMX1 sgRNA, 1 μM 4-hydroxytamoxifen up to 24 hours): did not yield any measurable cleavage
- duration of 4HT treatment after which off-target effects were observed ([5]; gRNAs targeting VEGFA promoter first site, TAT locus, FANCF locus): 16 h
- cleavage bands with 4HT (FANCF locus): strong cleavage bands were observed
- cleavage band in the absence of 4HT (FANCF locus; no 4HT): no cleavage band was detected
- duration of 4-hydroxytamoxifen treatment until nuclease activity, all loci tested [6]: ≤ 4 h
